Reference: patent publication US10800807B2, “TGR5 modulators and methods of use thereof” (Intercept Pharmaceuticals, Inc., priority 2015, dated 2020)
Residue numbers refer to the chain shown, from its start. Values after ≈ are worked out from the molar mass of the structure shown. Read-outs that look alike come from different tables or passages of the source.

Assays:
[1] = Lipophilicity, 1-octanol/water partition coefficient (shake-flask); type: physicochemical; conditions: pH 8.00, ionized BA
Experimental: The experiments were carried out on 1 mM initial bile salt solution buffered at pH 8.00 with 0.1 M potassium phosphate buffer to ensure complete ionization of the BA. BA concentration in the water phase before and after partition in 1-octanol was measured by HPLC-ESMS/MS as reported below.

[2] = target: T1, human glutathione transferase-tagged FXR-LBD (Homo sapiens, UniProt Q96RI1); assay: FXR AlphaScreen coactivator recruitment assay (human); type: biochemical; set-up: Emax: dose or concentration left out as unconfirmed; conditions: for EC50: human FXR-LBD, AlphaScreen, read-out: hFXR EC50; for Emax: read-out: hFXR Efficacy;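 for hFXR Efficacy: CDCA at 50 µM taken as 100%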
T1 construct: human glutathione transferase-tagged FXR-LBD (Life Technologies, USA); purchased Life Technologies, USA
T1 sequence (Q96RI1 262-486 limits assumed): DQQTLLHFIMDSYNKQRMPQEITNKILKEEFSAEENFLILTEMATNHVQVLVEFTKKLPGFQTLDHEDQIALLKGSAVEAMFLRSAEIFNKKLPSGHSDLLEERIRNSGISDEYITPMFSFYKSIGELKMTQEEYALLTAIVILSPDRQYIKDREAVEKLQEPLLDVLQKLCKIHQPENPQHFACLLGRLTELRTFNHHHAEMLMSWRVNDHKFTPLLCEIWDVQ
Experimental: (§1) Activation of the FXR receptor was determined using a recruitment coactivator assay, namely AlphaScreen technology. The assays were performed using human glutathione transferase-tagged FXR-LBD (Life Technologies, USA) and mouse glutathione transferase-tagged FXR-LBD (generated in-house). Briefly, assays were conducted in white, low-volume, 384-well OptiPlate using a final volume of 25 μL containing 10 nM glutathione transferase-tagged FXR-LBD protein and 30 nM biotinylated Src-1 peptide. The stimulation was carried out with different BA concentrations for 30 minutes at 25° C. […] Dose-response curves were performed in triplicate and Z′ factor was used to validate the robustness of the assay.

Water solubility = type: physicochemical; conditions: simulated gastric fluid, thermodynamic from solid, 0.1 M HCl, pH 1.00, 25° C., read-out: Ws
Experimental: BA were suspended in 100 ml of 0.1 M HCl, pH 1.00, and the saturated solutions were transferred to a thermostat-equipped water bath maintained at 25° C. After incubation for 1 week, the solutions were filtered on a Millipore filter ([…]), and the concentration of BA was measured by HPLC-ESMS/MS as reported below.

mTGR5 = target: T2, mTGR5 (Mus musculus, UniProt Q80SS6); assay: TGR5 activity: cAMP in mTGR5 CHO-Pi10 clone 4 cells; type: cell-based; conditions: for Emax: 0.5 h, read-out: (mTGR5 CHO) Efficacy
T2 construct: expressed in transfected cells; host or cells: CHO-Pi10 clone 4
T2 sequence (Q80SS6 1-329): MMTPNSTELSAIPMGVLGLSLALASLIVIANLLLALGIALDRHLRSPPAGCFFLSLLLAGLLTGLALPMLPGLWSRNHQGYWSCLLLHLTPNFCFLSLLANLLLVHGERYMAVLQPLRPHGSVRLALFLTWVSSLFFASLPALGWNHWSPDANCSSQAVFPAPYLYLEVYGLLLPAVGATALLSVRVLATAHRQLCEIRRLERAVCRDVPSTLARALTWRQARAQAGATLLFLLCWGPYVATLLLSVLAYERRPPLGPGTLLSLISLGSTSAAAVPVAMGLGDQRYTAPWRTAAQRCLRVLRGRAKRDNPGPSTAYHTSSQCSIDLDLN

TGR5 [3] = target: T3, TGR5 (Homo sapiens, UniProt Q8TDU6); assay: TGR5 activity: intracellular cAMP levels, NCI-H716 cells (HTR-FRET); type: cell-based; set-up: endogenous in cells; host or cells: NCI-H716; conditions: for Emax: read-out: TGR5 (NCI-H716) Efficacy; for EC50: cAMP
T3 sequence (Q8TDU6 1-330): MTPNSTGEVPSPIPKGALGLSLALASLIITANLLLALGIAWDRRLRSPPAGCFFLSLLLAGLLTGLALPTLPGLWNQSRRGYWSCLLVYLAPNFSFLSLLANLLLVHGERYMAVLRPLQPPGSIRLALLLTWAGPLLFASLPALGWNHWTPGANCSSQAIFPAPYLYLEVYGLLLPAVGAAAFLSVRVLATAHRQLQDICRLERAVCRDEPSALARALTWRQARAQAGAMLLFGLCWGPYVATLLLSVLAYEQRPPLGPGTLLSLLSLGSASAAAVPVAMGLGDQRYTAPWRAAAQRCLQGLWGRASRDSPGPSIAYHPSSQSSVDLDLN
Experimental: Activation of TGR5 was assessed by measuring the level of cAMP using an HTR-FRET assay. Thus, NCI-H716 cells were cultured on 96-well plates coated with Matrigel (Corning, USA) (0.75 mg/ml) in DMEM supplemented with 10% FCS, 100 units/ml penicillin, and 100 μg/ml streptomycin sulphate. […] The level of intracellular cAMP was determined with Lance kit. Z′ factor was used to validate assays.

bovine serum albumin = bovine serum albumin (Bos taurus, UniProt P02769); assay: Albumin binding by equilibrium dialysis; type: in vitro ADME; conditions: 5% bovine serum albumin saline solution, 25° C.
Experimental: BA was dissolved at a concentration of […] in 5% bovine serum albumin saline solution and left to stand for 24 hours at 25° C. Two milliliters of this solution was dialyzed in cellulose sacs with a molecular weight cut-off of 12-14 kDa (Spectra/Por; Spectrum Medical Industries Inc., Rancho Dominguez, Calif.) against 25 ml of saline solution. The system was equilibrated by mechanical shaking for 72 hours at 25° C. BA concentrations in the starting solution and in the dialyzed solution were determined by HPLC-ES-MS/MS as reported below.

[4] = Critical micellar concentration (surface tension / dye solubilization); type: physicochemical
TGR5 [5] = target: T3, TGR5; assay: TGR5 activity: cAMP in hTGR5 CHO-k1 cells; type: cell-based; set-up: expressed in transfected cells; host or cells: CHO-k1; conditions: for Emax: 0.5 h, read-out: hTGR5 CHO Efficacy; for EC50: cAMP
[6] = target: T4, mouse glutathione transferase-tagged FXR-LBD (Mus musculus, UniProt Q60641); assay: FXR AlphaScreen coactivator recruitment assay (mouse); type: biochemical; conditions: mouse FXR-LBD, value in parentheses; for EC50: read-out: (mFXR) EC50; for Emax: read-out: (mFXR) Efficacy
T4 construct: mouse glutathione transferase-tagged FXR-LBD (generated in-house); made in house
T4 sequence (Q60641 264-488 limits assumed): T1 sequence (Q96RI1 262-486 limits assumed) with H7D, F8Y, N46S, V50I, S95A, S98A, N107K, I125V, I174M, H175Y
Experimental: as §1

[7] = Critical micellar concentration (surface tension / dye solubilization); type: physicochemical; conditions: BA sodium salts in 0.1 M NaCl, 25° C.
Experimental: In the first method, the surface tension was performed by maximum bubble-pressure method using a Sensadyne 6000 tensiometer (Chem-Dyne Research Corp., Milwaukee, Wis.). The surface tension of aqueous solutions at various concentrations (range 0.1-100 mM) of the BA sodium salts in 0.1 M NaCl was measured at 25° C. The surface tension values were plotted against the logarithm of the bile salt concentration; the regression lines corresponding to the two parts of the curve (monomeric and micellar phases) were calculated using the method of least squares. The critical micellar concentration (CMC) value (mM) was obtained by the intersection of the two lines.
The second method is based on the fact that some dyes, specifically Orange OT ([…]), are almost insoluble in water but dissolve in solutions with micellar aggregates that incorporate them; thus, the intensity of color of the solution increases with bile salt concentration (after CMC achievement). The amount of dye solubilized in relation to bile salt concentration was determined spectrophotometrically.
For each bile acid, various solution at different concentrations, between 50 mM and 0.1 mM with appropriate dilutions, were incubated under stirring at room temperature for 3 days with an excess of Orange OT. Then all the solutions were centrifuged and filtered through a 0.22 μm Millipore fiiter (Millipore Corp., Bedford, Mass.).

[8] = mTGR5 CHO cells, value in parentheses
[9] = 1 h, NCI-H716 cells, Ref. LCA 100% at 10 μM
[10] = hTGR5 CHO cells, Ref. LCA 100% at 10 μM

bovine serum albumin, sequence (P02769 25-607): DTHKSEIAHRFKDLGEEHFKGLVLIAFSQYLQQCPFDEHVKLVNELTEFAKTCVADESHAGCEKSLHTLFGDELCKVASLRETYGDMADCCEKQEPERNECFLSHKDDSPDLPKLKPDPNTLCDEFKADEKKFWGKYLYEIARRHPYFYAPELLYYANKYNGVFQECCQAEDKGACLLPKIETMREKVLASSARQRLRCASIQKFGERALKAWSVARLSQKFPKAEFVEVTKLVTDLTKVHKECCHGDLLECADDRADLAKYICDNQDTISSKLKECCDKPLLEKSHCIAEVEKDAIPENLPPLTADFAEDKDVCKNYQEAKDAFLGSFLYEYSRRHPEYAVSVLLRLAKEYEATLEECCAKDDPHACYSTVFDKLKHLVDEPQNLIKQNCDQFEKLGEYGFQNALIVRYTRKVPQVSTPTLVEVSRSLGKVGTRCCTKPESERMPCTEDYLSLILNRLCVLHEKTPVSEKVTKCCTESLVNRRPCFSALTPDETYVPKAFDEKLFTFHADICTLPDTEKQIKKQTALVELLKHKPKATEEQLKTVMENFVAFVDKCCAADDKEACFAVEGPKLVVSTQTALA

Compound | LogPA− [1] | EC50 [2] [nM] | Emax [2] [%] | solubility thermodynamic at 1 week (Water solubility) [µM] | Emax (mTGR5; CHO) [%] | EC50 (mTGR5; [8]) [nM] | Emax (TGR5 [3]; NCI-H716, 1 h) [%] | EC50 (TGR5 [3]; NCI-H716 cells) [nM] | Albumin binding (%) (bovine serum albumin) | CMpH [4] | Emax (TGR5 [5]; CHO) [%] | EC50 (TGR5 [5]; hTGR5 CHO cells) [nM] | EC50 [6] [nM] | pKa (pKa) | CMC [7] [mM] | Emax (mTGR5; [8]) [%] | Emax (TGR5 [3]; [9]) [%] | Emax (TGR5 [5]; [10]) [%] | Emax [6] [%]
CC[C@H]1[C@@H](O)C2C3CC[C@H]([C@H](C)C[C@@H](CO)C(=O)O)[C@@]3(C)[C@@H](O)CC2[C@@]2(C)CC[C@@H](O)C[C@@H]12 (stereo partly drawn) [Compound 4, 3α,7α,12α-Trihydroxy-6α-ethyl-23(A)-hydroxymethyl-5β-cholan-24-oic acid] | −0.2 | 80000 ± 30000 | 20 ± 2 | 3200 (≈ 1490 µg/mL) | 102 | 1300 | 77 ± 10 | 7500 ± 5000 | 55 | 4.5 | 99 ± 1.4 | 4650 ± 500 | > 150000 | 4.36 | 5 | – | – | – | –
CC[C@H]1[C@@H](O)[C@@H]2[C@H](C[C@H](O)[C@]3(C)[C@@H]([C@H](C)C[C@H](F)C(=O)O)CC[C@@H]23)[C@@]2(C)CC[C@@H](O)C[C@@H]12 [Compound 8, 3α,7α,12α-Trihydroxy-6α-ethyl-23(S)-fluoro-5β-cholan-24-oate] | 0.01 | 5600 ± 1000 | 113 ± 3 | 971 (≈ 441 µg/mL) | – | 780 | – | 7000 ± 3000 | 84 | 3.6 | – | 500 ± 100 | 59500 | 2.82 | 6 | 100 | 97 ± 1.7 | 103 ± 2 | 47
CC[C@H]1[C@@H](O)[C@@H]2[C@H](C[C@H](O)[C@]3(C)[C@@H]([C@H](C)C[C@@H](F)C(=O)O)CC[C@@H]23)[C@@]2(C)CC[C@@H](O)C[C@@H]12 [Compound 9, 3α,7α,12α-Trihydroxy-6α-ethyl-23(R)-fluoro-5β-cholan-24-oate] | 0.2 | 2900 ± 900 | 147 ± 20 | 469 (≈ 213 µg/mL) | – | 1800 | – | 22000 ± 3000 | 89 | 3.9 | – | 1400 ± 300 | 55000 | 2.82 | 6 | 90 | 75 ± 6 | 98 ± 2 | 127
CC[C@H]1[C@@H](O)C2C3CC[C@H]([C@H](C)CC(F)(F)C(=O)O)[C@@]3(C)CCC2[C@@]2(C)CC[C@@H](O)C[C@@H]12 (stereo partly drawn) [Compound 10, 3α,7α-Dihydroxy-6α-ethyl-23,23-gemdifluoro-5β-cholan-24-oic acid] | 1.4 | 200 ± 40 | 128 ± 4 | 16 (≈ 7.31 µg/mL) | – | 600 | – | 1600 ± 200 | 66 | 3.7 | – | 340 ± 40 | 7100 | 1.1 | 8.5 | 102 | 125 ± 1 | 103 ± 1 | 143
CC[C@H]1[C@@H](O)C2C3CC[C@H]([C@H](C)CCc4noc(=O)[nH]4)[C@@]3(C)[C@@H](O)CC2[C@@]2(C)CC[C@@H](O)C[C@@H]12 (stereo partly drawn) [Compound 11, 3α,7α,12α-trihydroxy-6α-ethyl-24-nor-5β-23([1,2,4]-oxadiazole-3-one-5yl)-cholane] | 1.6 | 1000 | 140 | 392 (≈ 187 µg/mL) | – | 1400 | – | 2000 | 84 | 7.0 | – | 2700 ± 1800 | 7700 | 5.94 | 5 | 108 | 105 | 96 ± 19 | 100
CC[C@H]1[C@@H](O)C2C3CC[C@H]([C@H](C)CCc4nn[nH]n4)[C@@]3(C)[C@@H](O)CC2[C@@]2(C)CC[C@@H](O)C[C@@H]12 (stereo partly drawn) [Compound 12, 3α,7α,12α-Trihydroxy-6α-ethyl-23-(tetrazol-5-yl)-24-nor-5β-cholane] | 1.5 | 1700 ± 600 | 125 ± 15 | 517 (≈ 238 µg/mL) | – | 840 | – | 4000 | 83 | 6.6 | – | 710 ± 80 | 12700 | 5.59 | 5 | 105 | 104 | 101 ± 1.4 | 93
